Read-outs that look alike come from different tables or passages of the source.
What was measured:
DPP8 = DPP8 (Homo sapiens (Human), UniProt Q6V1X1); assay: DPP8 enzyme inhibition, IC50 measurement (Ala-Pro-pNA release); assay type: biochemical
Procedure: (§1) IC50 measurements. […] The Magellan software was used to process the data, which was then fitted using a non-linear fit model in GraFit 7. […] As a blank, the assay buffer was used instead of the enzyme. Screening measurements were carried out in duplo and IC50 values were determined in triplo with at least eight different inhibitor concentrations as described by Van Goethem et al.

DPP9 = DPP9 (Homo sapiens (Human), UniProt Q86TI2); assay: DPP9 enzyme inhibition, IC50 measurement (Ala-Pro-pNA release); assay type: biochemical; conditions: for SI DPP9/8 / SI DPP9/DPP8: selectivity index; for SI DPP9/8: DPP8 IC50 over DPP9 IC50
Procedure: DPP4 was purified from human seminal plasma as described previously.^[3]
as §1

[1] = Table 3, mean ± SD (n = 3), read-out: DPP8 IC50 ± SD
[2] = Table 3, mean ± SD (n = 3), read-out: DPP9 IC50 ± SD
[3] = Table 4, standard method, read-out: IC50 DPP8
[4] = Table 4, standard method, read-out: IC50 DPP9

Sequence of DPP9 (Q86TI2 whole entry): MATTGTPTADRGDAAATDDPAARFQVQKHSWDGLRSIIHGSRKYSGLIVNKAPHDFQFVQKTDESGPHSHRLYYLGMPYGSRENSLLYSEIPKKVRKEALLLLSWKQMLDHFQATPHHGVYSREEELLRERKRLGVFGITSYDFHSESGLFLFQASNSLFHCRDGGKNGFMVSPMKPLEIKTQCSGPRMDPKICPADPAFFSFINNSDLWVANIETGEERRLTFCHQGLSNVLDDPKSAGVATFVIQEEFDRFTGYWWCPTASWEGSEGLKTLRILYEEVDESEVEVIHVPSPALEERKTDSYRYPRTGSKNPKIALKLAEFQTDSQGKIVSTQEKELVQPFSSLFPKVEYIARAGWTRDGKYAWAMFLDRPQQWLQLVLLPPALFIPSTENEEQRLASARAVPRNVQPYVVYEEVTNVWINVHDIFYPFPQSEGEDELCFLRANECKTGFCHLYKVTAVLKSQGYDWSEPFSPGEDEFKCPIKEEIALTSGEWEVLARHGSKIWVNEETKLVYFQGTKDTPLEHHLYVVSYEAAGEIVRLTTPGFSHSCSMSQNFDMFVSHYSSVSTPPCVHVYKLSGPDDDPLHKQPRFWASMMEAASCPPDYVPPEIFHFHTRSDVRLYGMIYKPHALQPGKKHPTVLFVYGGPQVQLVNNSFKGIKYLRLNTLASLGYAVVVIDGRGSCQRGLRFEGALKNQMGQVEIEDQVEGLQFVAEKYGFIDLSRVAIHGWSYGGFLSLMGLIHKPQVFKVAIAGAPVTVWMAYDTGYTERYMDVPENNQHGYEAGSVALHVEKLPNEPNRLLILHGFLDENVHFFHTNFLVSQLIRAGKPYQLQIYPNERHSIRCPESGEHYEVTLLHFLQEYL
Sequence of DPP8 (Q6V1X1 whole entry): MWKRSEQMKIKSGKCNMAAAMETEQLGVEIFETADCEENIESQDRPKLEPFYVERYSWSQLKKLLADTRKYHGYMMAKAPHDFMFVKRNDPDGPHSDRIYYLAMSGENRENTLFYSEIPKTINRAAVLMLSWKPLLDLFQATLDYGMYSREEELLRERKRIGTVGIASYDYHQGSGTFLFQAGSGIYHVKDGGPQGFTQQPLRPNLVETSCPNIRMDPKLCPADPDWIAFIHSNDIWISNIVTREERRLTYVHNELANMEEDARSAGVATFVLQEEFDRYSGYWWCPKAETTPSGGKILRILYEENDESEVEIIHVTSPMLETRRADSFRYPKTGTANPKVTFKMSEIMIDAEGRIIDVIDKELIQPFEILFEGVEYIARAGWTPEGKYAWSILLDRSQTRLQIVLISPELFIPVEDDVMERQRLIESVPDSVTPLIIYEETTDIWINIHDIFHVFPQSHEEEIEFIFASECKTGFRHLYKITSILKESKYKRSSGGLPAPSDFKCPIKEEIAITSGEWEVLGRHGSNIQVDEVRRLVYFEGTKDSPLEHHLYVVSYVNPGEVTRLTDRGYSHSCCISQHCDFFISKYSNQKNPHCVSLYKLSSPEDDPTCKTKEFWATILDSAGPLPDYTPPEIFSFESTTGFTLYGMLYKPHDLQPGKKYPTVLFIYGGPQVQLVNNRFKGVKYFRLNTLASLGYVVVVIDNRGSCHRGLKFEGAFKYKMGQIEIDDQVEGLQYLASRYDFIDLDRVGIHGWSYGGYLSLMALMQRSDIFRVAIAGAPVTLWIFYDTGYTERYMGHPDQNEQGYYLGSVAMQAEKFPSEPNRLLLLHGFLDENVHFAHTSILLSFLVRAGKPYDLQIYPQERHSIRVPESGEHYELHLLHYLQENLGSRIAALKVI

Molecule | IC50 (DPP8; [1]) [nM] | IC50 (DPP9; [2]) [nM] | SI DPP9/8 (DPP9; Table 3) | IC50 (DPP8; [3]) [nM] | SI DPP9/DPP8 (DPP9; Table 4) | IC50 (DPP9; [4]) [nM]
O=C(N[C@H]1CC[C@H](O)CC1)OC12CC3CC(CC(NCC(=O)N4Cc5ccccc5C4)(C3)C1)C2 [Compound 35, 3-((2-(isoindolin-2-yl)-2-oxoethyl)amino)adamantan-1-yl ((1r,4R)-4-hydroxycyclohexyl)carbamate] | 399 ± 38.8 | 36.6 | 10.9 |  |  | 
COC(=O)[C@H](C)NC(=O)OC12CC3CC(CC(NCC(=O)N4Cc5ccc(F)cc5C4)(C3)C1)C2 [Compound 62, Methyl (((3-((2-(5-fluoroisoindolin-2-yl)-2-oxoethyl)amino)adamantan-1-yl)oxy)carbonyl)-L-alaninate] | 1290 ± 186 | 93.8 ± 17.3 | 13.8 |  |  | 
COC(=O)[C@H](CCSC)NC(=O)OC12CC3CC(CC(NCC(=O)N4Cc5ccc(F)cc5C4)(C3)C1)C2 [Compound 61, Methyl (((-3-((2-(5-fluoroisoindolin-2-yl)-2-oxoethyl)amino)adamantan-1-yl)oxy)carbonyl)-L-methioninate] | 705 ± 76 | 46.1 | 15.3 |  |  | 
O=C(NC12CC3CC(CC(C3)C1)C2)NC12CC3CC(CC(NCC(=O)N4Cc5ccccc5C4)(C3)C1)C2 [Compound 41, 1-(adamantan-1-yl)-3-(3-((2-(isoindolin-2-yl)-2-oxoethyl)amino)adamantan-1-yl)urea] | 592 ± 87.7 | 32.8 | 18.0 |  |  | 
CC(C)(C)OC(=O)NC12CC3CC(CC(NCC(=O)N4Cc5ccc(F)cc5C4)(C3)C1)C2 [Compound 46, tert-butyl (3-((2-(5-fluoroisoindolin-2-yl)-2-oxoethyl)amino)adamantan-1-yl)carbamate] | 824 ± 148 | 14.3 | 57.6 |  |  | 
Cl.O=C(NC12CC3CC(CC(NCC(=O)N4Cc5ccc(F)cc5C4)(C3)C1)C2)c1ccc(F)cc1 [Compound 95, 4-fluoro-N-((1s,3r,5R,7S)-3-((2-(5-fluoroisoindolin-2-yl)-2-oxoethyl)amino)adamantan-1-yl)benzamide hydrochloride] |  |  |  | 295 ± 15 | 7 | 42
N#Cc1ccc(CCC(=O)NC23CC4CC(CC(NCC(=O)N5Cc6ccccc6C5)(C4)C2)C3)cc1 [Compound 44, 3-(4-cyanophenyl)-N-(3-((2-(isoindolin-2-yl)-2-oxoethyl)amino)adamantan-1-yl)propanamide] | 638 ± 46.4 | 32 | 19.9 |  |  | 
N#Cc1ccc(CNC23CC4CC(CC(NCC(=O)N5Cc6ccccc6C5)(C4)C2)C3)cc1 [Compound 26, 4-(((-3-((2-(isoindolin-2-yl)-2-oxoethyl)amino)adamantan-1-yl)amino)methyl)benzonitrile] | 672 ± 412 | 50.6 ± 28.7 | 13.3 |  |  | 
NC12CC3CC(C1)CC(NCC(=O)N1Cc4ccc(F)cc4C1)(C3)C2 [Compound 47, 2-((3-aminoadamantan-1-yl)amino)-1-(5-fluoroisoindolin-2-yl)ethan-1-one bis(2,2,2-trifluoroacetate)] | 2620 ± 394 | 259 ± 35.8 | 10.1 |  |  | 
Cc1ncsc1-c1ccc(CNC(=O)[C@@H]2C[C@@H](O)CN2C(=O)[C@@H](NC(=O)CCOCCOCCOCCC(=O)NC23CC4CC(CC(NCC(=O)N5Cc6ccc(F)cc6C5)(C4)C2)C3)C(C)(C)C)cc1 [Compound 124, (2S,4R)-1-((2S)-2-(tert-butyl)-16-((3-((2-(5-fluoroisoindolin-2-yl)-2-oxoethyl)amino)adamantan-1-yl)amino)-4,16-dioxo-7,10,13-trioxa-3-azahexadecanoyl)-4-hydroxy-N-(4-(4-methylthiazol-5-yl)benzyl)pyrrolidine-2-carboxamide] |  |  |  | 94 ± 25 | 5 | 20
CC(C)(C)NC(=O)NC12CC3CC(CC(NCC(=O)N4Cc5ccc(F)cc5C4)(C3)C1)C2 [Compound 48, 1-(tert-butyl)-3-(3-((2-(5-fluoroisoindolin-2-yl)-2-oxoethyl)amino)adamantan-1-yl)urea] | 369 ± 30 | 4 ± 1 | 85 |  |  | 
O=C1CCC(N2C(=O)c3cccc(NCCOCCOCCOCCNC(=O)NC45CC6CC(CC(NCC(=O)N7Cc8ccc(F)cc8C7)(C6)C4)C5)c3C2=O)C(=O)N1 (stereo not drawn) [Compound 78, 1-(2-(2-(2-(2-((2-(2,6-Dioxopiperidin-3-yl)-1,3-dioxoisoindolin-4-yl)amino)ethoxy)ethoxy)ethoxy)ethyl)-3-(3-((2-(5-fluoroisoindolin-2-yl)-2-oxoethyl)amino)adamantan-1-yl)urea] | 79 | 12 | 7 |  |  | 
O=C(NCc1ccccc1)OC12CC3CC(CC(NCC(=O)N4Cc5ccccc5C4)(C3)C1)C2 [Compound 36, 3-((2-(isoindolin-2-yl)-2-oxoethyl)amino)adamantan-1-yl benzylcarbamate] | 1150 ± 151 | 73.8 | 15.6 |  |  | 
O=C(NCc1ccncc1)OC12CC3CC(CC(NCC(=O)N4Cc5ccccc5C4)(C3)C1)C2 [Compound 37, 3-((2-(isoindolin-2-yl)-2-oxoethyl)amino)adamantan-1-yl (pyridin-4-ylmethyl)carbamate] | 1110 ± 335 | 90.8 ± 13.5 | 12.2 |  |  | 
Cl.O=C(NC12CC3CC(CC(NCC(=O)N4Cc5ccc(F)cc5C4)(C3)C1)C2)c1ccc(-c2cccnc2)cc1 [Compound 88, N-((1s,3r,5R,7S)-3-((2-(5-fluoroisoindolin-2-yl)-2-oxoethyl)amino)adamantan-1-yl)-4-(pyridin-3-yl)benzamide hydrochloride] |  |  |  | 51 ± 25 | 24 | 2
Cc1ccc2c(c1)CN(C(=O)CNC13CC4CC(C1)CC(NC(=O)OC(C)(C)C)(C4)C3)C2 [Compound 84, tert-butyl ((1s,3r,5R,7S)-3-((2-(5-methylisoindolin-2-yl)-2-oxoethyl)amino)adamantan-1-yl)carbamate] |  |  |  | 4710 ± 444 | 23 | 208 ± 48
O=C(NCCCCO)OC12CC3CC(CC(NCC(=O)N4Cc5ccccc5C4)(C3)C1)C2 [Compound 29, 3-((2-(isoindolin-2-yl)-2-oxoethyl)amino)adamantan-1-yl(4-hydroxybutyl)carbamate] | 2600 ± 577 | 243 ± 107 | 10.7 |  |  | 
O=C(O)[C@@H]1CCCN1C(=O)OC12CC3CC(CC(NCC(=O)N4Cc5ccc(F)cc5C4)(C3)C1)C2 | 920 ± 121 | 8.03 | 114.6 |  |  | 
O=C(NCCCC[C@H](NC(=O)OC12CC3CC(CC(NCC(=O)N4Cc5ccccc5C4)(C3)C1)C2)C(=O)O)OCc1ccccc1 [Compound 34, N^6-((benzyloxy)carbonyl)-N^2-(((3-((2-(isoindolin-2-yl)-2-oxoethyl)amino)adamantan-1-yl)oxy)carbonyl)-L-lysine] | 39.4 | 1.74 | 22.5 |  |  | 
3-((2-(isoindolin-2-yl)-2-oxoethyl)amino)adamantan-1-yl tert-pentylcarbamate hydrochloride [Compound 31] | 4710 ± 1590 | 378 ± 173 | 12.5 |  |  | 
Methyl (((3-((2-(5-fluoroisoindolin-2-yl)-2-oxoethyl)amino)adamantan-1-yl)oxy)carbonyl)-L-isoleucinate [Compound 57] | 2180 ± 345 | 107 | 20.4 |  |  | 
O=C(N[C@@H](Cc1c[nH]c2ccccc12)C(=O)O)OC12CC3CC(CC(NCC(=O)N4Cc5ccc(F)cc5C4)(C3)C1)C2 | 164 | 6.55 | 25.0 |  |  | 
CC(C)(C)CC(=O)NC12CC3CC(CC(NCC(=O)N4Cc5cc(F)c(F)cc5C4)(C3)C1)C2 [Compound 86, N-((1s,3r,5R,7S)-3-((2-(5,6-difluoroisoindolin-2-yl)-2-oxoethyl)amino)adamantan-1-yl)-3,3-dimethylbutanamide] |  |  |  | 1300 ± 127 | 22 | 58
CC(C)(C)NC(=O)NC12CC3CC(CC(NCC(=O)N4Cc5ccccc5C4)(C3)C1)C2.Cl [Compound 40, 1-(tert-butyl)-3-(3-((2-(isoindolin-2-yl)-2-oxoethyl)amino)adamantan-1-yl)urea hydrochloride] | 1050 ± 133 | 51.8 ± 15.7 | 20.3 |  |  | 
O=C(CCCCC1SCC2NC(=O)NC21)NCCOCCOCCOCCNC(=O)NC12CC3CC(CC(NCC(=O)N4Cc5ccc(F)cc5C4)(C3)C1)C2 (stereo not drawn) [Compound 75, N-(1-((3-((2-(5-fluoroisoindolin-2-yl)-2-oxoethyl)amino)adamantan-1-yl)amino)-1-oxo-5,8,11-trioxa-2-azatridecan-13-yl)-5-(2-oxohexahydro-1H-thieno[3,4-d]imidazol-4-yl)pentanamide] | 495 ± 72 | 43 | 12 |  |  | 
lithium (((3-((2-(5-fluoroisoindolin-2-yl)-2-oxoethyl)amino)adamantan-1-yl)oxy)carbonyl)-L-tryptophanate [Compound 56] | 2080 ± 184 | 94.6 | 22.0 |  |  | 
CC12CC3CC(C)(C1)CC(NCC(=O)N1Cc4ccc(F)cc4C1)(C3)C2 [Compound 63, 2-((3,5-Dimethyladamantan-1-yl)amino)-1-(5-fluoroisoindolin-2-yl)ethan-1-one] | 4780 ± 670 | 443 ± 168 | 10.8 |  |  | 
O=C1CCC(N2C(=O)c3cccc(NCCOCCNC(=O)NC45CC6CC(CC(NCC(=O)N7Cc8ccc(F)cc8C7)(C6)C4)C5)c3C2=O)C(=O)N1 (stereo not drawn) [Compound 77, 1-(2-(2-((2-(2,6-Dioxopiperidin-3-yl)-1,3-dioxoisoindolin-4-yl)amino)ethoxy)ethyl)-3-(3-((2-(5-fluoroisoindolin-2-yl)-2-oxoethyl)amino)adamantan-1-yl)urea] | 21 | 2.4 | 9 |  |  | 
